Laboratory results reported in article PMC9241695, “Selective Metal Chelation by a Thiosemicarbazone Derivative Interferes with Mitochondrial Respiration and Ribosome Biogenesis in Candida albicans” (Microbiology Spectrum, 2022).
Converted amounts (≈) assume the structure as drawn. Like-named read-outs stand apart in the source and are kept apart here.

Tests used:
[1] = test system: C. albicans SC5314; assay: Antifungal susceptibility testing, microbroth dilution MIC; assay type: cell-based; settings: Candida albicans
Description: (§1) Compound library. The thiosemicarbazone derivatives Triapine and COTI-2 were purchased from Med Chem Express (MCE). The other 87 thiosemicarbazones used in this study were previously synthesized by our collaborators (1, 2). Their structures are shown in Table 1 and Table S1 to help the reader clearly understand the relationship between structure and activity.
(§2) Strains and culture conditions. Clinically derived C. albicans isolates, including G5, F5, and Gu5, were kindly provided by Professor Joachim Morschhäuser of the University of Würzburg. Other clinical C. albicans isolates were kindly donated by Professor Qingguo Qi of Shandong University and Qianfoshan Hospital of Shandong Province Other Candida strains were obtained from Jinan Central Hospital.
(§3) The zap1 mutant and its complemented strain were kindly provided by Professor Aaron P. Mitchell of Carnegie Mellon University (3). The C. neoformans strains used in this study was kindly donated by Professor Guojian Liao of Southwest University and A. fumigatus strain used in this study was provided by Professor Ling Lu of Nanjing Normal University. Before in vitro and in vivo experiments, all C. albicans strains were grown on YPD agar plates. After culturing at 30°C for 24 h, colonies of each strain were cultured in liquid YPD medium at 30°C with continuous shaking […]
(§4) Antifungal susceptibility testing. To determine in vitro antifungal activities, the microbroth dilution method was carried out in RPMI1640 medium according to the guidelines of the Clinical and Laboratory Standards Institute (4, 5). The initial concentration in RPMI1640 medium was 1 × 10^3 CFU/mL for the C. albicans and C. neoformans suspensions but 1 × 10^4 CFU/mL for A. fumigatus. The range of final drug concentrations was 0.0156–64 μg/mL. The plates were incubated at35°C for 24 […]
(§5) h (for C. albicans, C. krusei, C. tropicalis, C. parapsilosis) or 48 h (for C. neoformans, A. fumigatus). The MIC was determined based on visible growth inhibition compared with the control. All experiments were performed in duplicate. […]

[2] = test system: C. albicans SC5314; assay: Respiratory activity by CTC staining; assay type: cell-based, Candida albicans; settings: 6 h, 1 mM CTC; 19ak 0.125-1 μg/mL, TPEN 0.05-0.4 μg/mL
Description: (§6) h (for C. albicans, C. krusei, C. tropicalis, C. parapsilosis) or 48 h (for C. neoformans, A. fumigatus). The MIC was determined based on visible growth inhibition compared with the control. All experiments were performed in duplicate.
Cytotoxicity testing. The cell lines HK2 and 16HBE were used to evaluate the cytotoxicity of 19ak, 19k and 19t. Cells in DMEM containing 10% fetal bovine serum (Gibco) were seeded in 96-well tissue culture plates at a cell density of 1 × 10^4 cells/mL and incubated for 24 h to allow adhesion. The supernatant was then replaced with fresh DMEM containing various concentrations of 19ak, 19k and 19t. […]
The effects of the compounds on cell proliferation were detected by measuring the absorbance at 570 nm in a microplate reader (BioTek, VT, USA). […]
the fluorescent complex […] (CTF) is commonly used to indicate the intensity of microbial respiration. C. albicans SC5314 treated with 19ak was stained with 1 mM CTC for 30 min, followed by flow cytometry analysis of respiratory activity based on fluorescence intensity. Images of cells were obtained using a fluorescence microscope (IX71, Olympus, Tokyo, Japan). […] After an additional 2 h of incubation, OD450 in each well was detected with a microplate reader. […]
Mitochondrial complex activity was expressed as nmol/min/mg protein. […]

[3] = test system: C. albicans SC5314; assay: qPCR of genes associated with ribosome biogenesis; assay type: cell-based, Candida albicans; settings: CPX 0.5 or 2 μg/mL 8 h; DFO 64 µg/mL 6 h; TPEN 0.05 or 0.2 μg/mL 6 h
Description: Determination of SOD activity. SOD activity was measured using the Superoxide Dismutase Activity Assay Kit (Njjcbio, Nanjing, China) following the manufacturer's instructions. An overnight culture of C. albicans SC5314 was adjusted to 1 × 10^7 cells/mL with RPMI1640 medium and treated with 19ak at a final concentration of 0, 0.125, 0.25, 0.5, or 1 μg/mL for 6 h. After collection by centrifugation, the cells were broken by glass beads in extraction buffer and centrifuged at 4°C. The absorbance of the supernatant of each sample was measured with a microplate reader at450 nm.
Determination of catalase (CAT) activity. CAT activity was measured by using a Catalase Assay Kit (Solarbio, Beijing, China) following the manufacturer's instructions. An overnight culture of C. albicans SC5314 was adjusted to 1 × 10^6 cells/mL with RPMI1640 medium and treated as described above for SOD activity.
The decomposition of H2O2 is directly accompanied by a decrease in absorbance at 240 nm, and the difference in absorbance per unit time (ΔA240) is a measure of […]
Quantitative real-time polymerase chain reaction (qPCR) analysis. C. albicans SC5314 cells (1 × 10^6 cells/mL) were incubated with or without 19ak (0.5,2 […]
Total RNA was extracted using the hot phenol method, and the RNA quality was analyzed using a spectrophotometer (Eppendorf, Hamburg, Germany). The RNA was converted to cDNA using a cDNA Reverse
Transcription kit (Accurate Biotechnology, Hunan, China). PCR detection based on SYBR Green was performed on an Eppendorf real-time PCR system (Eppendorf, […]
Drug resistance study. Drug resistance studies were carried out by repeatedly treating C. albicans with an antifungal agent followed by MIC determination using […]

[4] = test system: A. fumigatus AF293; assay: Antifungal susceptibility testing, microbroth dilution MIC; assay type: cell-based; settings: Aspergillus fumigatus, AF293; standard strain of A. fumigatus; 48 h; read-out: MIC (μg/mL) against fungi AF293
Description: as §1, §2
(§7) The zap1 mutant and its complemented strain were kindly provided by Professor Aaron P. Mitchell of Carnegie Mellon University (3). The C. neoformans strains used in this study was kindly donated by Professor Guojian Liao of Southwest University and A. fumigatus strain used in this study was provided by Professor Ling Lu of Nanjing Normal University. […]
as §4, §5

[5] = test system: C. neoformans H99; assay: as above; assay type: cell-based; settings: Cryptococcus neoformans, H99; C. neoformans wild-type strain; 48 h; read-out: MIC (μg/mL) against fungi H99
Description: as §1, §2, §7, §4, §5

[6] = test system: C. albicans G5; assay: microbe, parasite or virus in culture; assay type: cell-based; settings: Candida albicans, G5
Description: as §1, §2, §3, §4, §5

[7] = test system: C. albicans Gu5; assay: microbe, parasite or virus in culture; assay type: cell-based; settings: Candida albicans, GU5
Description: as §1, §2, §3, §4, §5

[8] = test system: A. fumigatus 1161; assay: Microbroth dilution MIC80; assay type: cell-based; settings: Aspergillus fumigatus, 1161
Description: as §1, §2, §3, §4, §5

[9] = test system: C. albicans 11e; assay: Microbroth dilution MIC80; assay type: cell-based; settings: Candida albicans, 11E
Description: as §1, §2, §3, §4, §5

[10] = test system: C. albicans 11f; assay: Microbroth dilution MIC80; assay type: cell-based; settings: Candida albicans, 11F
Description: as §1, §2, §3, §4, §5

[11] = test system: C. albicans 24g; assay: Microbroth dilution MIC80; assay type: cell-based; settings: Candida albicans, 24G
Description: as §1, §2, §3, §4, §5

[12] = test system: C. albicans 28A; assay: Microbroth dilution MIC80; assay type: cell-based; settings: Candida albicans, 28A
Description: as §1, §2, §3, §4, §5

[13] = test system: C. albicans 28D; assay: Microbroth dilution MIC80; assay type: cell-based; settings: Candida albicans, 28D
Description: as §1, §2, §3, §4, §5

[14] = test system: C. albicans 28I; assay: Microbroth dilution MIC80; assay type: cell-based; settings: Candida albicans, 28I
Description: as §1, §2, §3, §4, §5

[15] = test system: C. albicans CA1; assay: Microbroth dilution MIC80; assay type: cell-based; settings: Candida albicans, CA1
Description: as §1, §2, §3, §4, §5

[16] = test system: C. albicans CA3; assay: Microbroth dilution MIC80; assay type: cell-based; settings: Candida albicans, CA3
Description: as §1, §2, §3, §4, §5

[17] = test system: C. albicans CA4; assay: Microbroth dilution MIC80; assay type: cell-based; settings: Candida albicans, CA4
Description: as §1, §2, §3, §4, §5

[18] = test system: C. albicans DSY654; assay: Microbroth dilution MIC80; assay type: cell-based; settings: Candida albicans
Description: as §1, §2, §3, §4, §5

[19] = test system: C. albicans F5; assay: Microbroth dilution MIC80; assay type: cell-based; settings: Candida albicans, F5
Description: as §1, §2, §3, §4, §5

[20] = test system: C. albicans YEM13; assay: Microbroth dilution MIC80; assay type: cell-based; settings: Candida albicans
Description: as §1, §2, §3, §4, §5

[21] = test system: C. albicans YEM15; assay: Microbroth dilution MIC80; assay type: cell-based; settings: Candida albicans, YEM15
Description: as §1, §2, §3, §4, §5

[22] = test system: C. neoformans 108; assay: Microbroth dilution MIC80; assay type: cell-based; settings: Cryptococcus neoformans, 108
Description: as §1, §2, §3, §4, §5

[23] = test system: C. tropicalis CT2; assay: Microbroth dilution MIC80; assay type: cell-based; settings: Candida tropicalis, CT2
Description: as §1, §2, §3, §4, §5

[24] = test system: C. krusei CK1; assay: Microbroth dilution MIC80; assay type: cell-based, Candida krusei; settings: Pichia kudriavzevii, CK1
Description: as §1, §2, §3, §4, §5

[25] = test system: C. parapsilosis CP001; assay: Microbroth dilution MIC80; assay type: cell-based, Candida parapsilosis; settings: Lodderomyces parapsilosis, CP001
Description: as §1, §2, §3, §4, §5

[26] = Cytotoxicity testing (MTT); assay type: cell-based, human; settings: human, 48 h, MTT
Description: as §6
(§8) Cytotoxicity testing. The cell lines HK2 and 16HBE were used to evaluate the cytotoxicity of 19ak, 19k and 19t. Cells in DMEM containing 10% fetal bovine serum (Gibco) were seeded in 96-well tissue culture plates at a cell density of 1 × 10^4 cells/mL and incubated for 24 h to allow adhesion. The supernatant was then replaced with fresh DMEM containing various concentrations of 19ak, 19k and 19t. The plates were subsequently incubated for an additional 48 h at 37°C with 5% CO2, followed by the addition of 10 μL of MTT solution to each well and incubation at 37°C for 4 h.
(§9) The effects of the compounds on cell proliferation were detected by measuring the absorbance at 570 nm in a microplate reader (BioTek, VT, USA). Three independent experiments were conducted. […]

[27] = test system: human bronchial epithelial cell line 16HBE; assay: Cytotoxicity testing (MTT); assay type: cell-based; settings: ratio of IC50 against 16HBE to MIC80 against C. albicans SC5314
Description: as §6, §8, §9

[28] = test system: human renal epithelial cell line HK2; assay: Cytotoxicity testing (MTT); assay type: cell-based; settings: ratio of IC50 against HK2 to MIC80 against C. albicans SC5314
Description: as §6, §8, §9

[29] = Cytotoxicity testing (MTT); assay type: cell-based, human; settings: human, HepG2 cells (hepatocellular carcinoma cell line)
[30] = test system: human hepatocellular carcinoma cell line HepG2; assay: Cytotoxicity testing (MTT); assay type: cell-based; settings: ratio of IC50 against HepG2 to MIC80 against C. albicans SC5314
[31] = test system: C. albicans SC5314; assay: Minimal fungicidal concentration (MFC); assay type: cell-based; settings: Candida albicans, read-out: MFC against C. albicans SC5314

c1ccc(CN(CCN(Cc2ccccn2)Cc2ccccn2)Cc2ccccn2)nc1 [TPEN, N,N,N′,N′-tetrakis (2-pyridylmethyl) ethylenediamine, reference compound]
MIC ([1]; SC5314, read-out: MIC against C. albicans SC5314 (Fig. S2 legend)): 0.05 µg/mL (≈ 0.118 µM)
Mitochondrial respiratory activity (CTC fluorescence intensity) [2]: failed to observe reduced mitochondrial respiration
Expression of genes associated with ribosome biogenesis (qPCR) [3]: downregulated

S=C(N/N=C/c1ccc(Br)cn1)Nc1ccc(Br)cc1 [Compound 19k]
MIC ([1]; SC5314, C. albicans wild-type strain, RPMI1640, 35°C, 24 h, read-out: MIC (μg/mL) against fungi SC5314): 1 µg/mL (≈ 2.41 µM)
MIC [4]: 8 µg/mL (≈ 19.3 µM)
MIC [5]: 0.031 µg/mL (≈ 0.0749 µM)
MIC80 [6]: 4 µg/mL (≈ 9.66 µM)
MIC80 [7]: 2 µg/mL (≈ 4.83 µM)
MIC80 [8]: 0.5 µg/mL (≈ 1.21 µM)
MIC80 [9]: 2 µg/mL (≈ 4.83 µM)
MIC80 [10]: 2 µg/mL (≈ 4.83 µM)
MIC80 [11]: 1 µg/mL (≈ 2.41 µM)
MIC80 [12]: 2 µg/mL (≈ 4.83 µM)
MIC80 [13]: 1 µg/mL (≈ 2.41 µM)
MIC80 [14]: 1 µg/mL (≈ 2.41 µM)
MIC80 [15]: 1 µg/mL (≈ 2.41 µM)
MIC80 [16]: 1 µg/mL (≈ 2.41 µM)
MIC80 [17]: 0.5 µg/mL (≈ 1.21 µM)
MIC80 [18]: 1 µg/mL (≈ 2.41 µM)
MIC80 [19]: 1 µg/mL (≈ 2.41 µM)
MIC80 [20]: 2 µg/mL (≈ 4.83 µM)
MIC80 [21]: 2 µg/mL (≈ 4.83 µM)
MIC80 [22]: 0.031 µg/mL (≈ 0.0749 µM)
MIC80 [23]: 2 µg/mL (≈ 4.83 µM)
MIC80 [24]: 4 µg/mL (≈ 9.66 µM)
MIC80 [25]: 2 µg/mL (≈ 4.83 µM)
IC50 at 48 h ([26]; 16HBE cells (bronchial epithelial cell line), 16HBE cells): 36.4 µg/mL (≈ 88 µM)
IC50 at 48 h ([26]; HK2 cells (renal epithelial cell line), HK2 cells): 63.9 µg/mL (≈ 154 µM)
Selectivity index 16HBE [27]: 36.43
Selectivity index HK2 [28]: 63.88
IC50 [29]: 28 µg/mL (≈ 67.6 µM)
Selectivity index HepG2 [30]: 28
MFC [31]: > 64 µg/mL
